Laboratory results reported in PMC9515143, “Phosphorylation of Jhd2 by the Ras-cAMP-PKA(Tpk2) pathway regulates histone modifications and autophagy” (Nature Communications, 2022).

Legend:
[1] = test system: H3K4me3; test: Western blot of H3K4me3 in yeast cells treated with glucose, 2-DG, FBP or pyruvate; assay type: cell-based, budding yeast (Saccharomyces cerevisiae); conditions: WT cells, YP medium with different glucose concentrations, 0.5 hr
From the text: To examine the effect of glucose on histone modifications, we grew yeast cells in 2% glucose-containing medium (YPD) until log phase. Cells were collected and then grown in the medium containing different concentrations of glucose for 0.5 hr.
PKA is activated by cyclic AMP (cAMP), which binds to its inhibitory subunit, Bcy1 and causes its dissociation (Fig. 1g). We thus examined H3K4me3 in deletion mutants of cAMP phosphodiesterases PDE1 and PDE2, which encode enzymes to hydrolyze cAMP and inactivate PKA[39],[40]. […] To test whether the Ras-cAMP-PKA pathway mediates glucose-induced H3K4me3, we examined H3K4me3 in ras1Δ and ras2Δ mutants. […] Ras1/2 can be activated by glycolysis-derived fructose-1,6-biphosphate (FBP) via Cdc25[6] (Fig. 1g).
(§1) To examine the effect of glucose on histone modifications, yeast cells were grown in 2% glucose-containing YPD (Yeast Extract Peptone Dextrose) medium until OD600 of 0.7–1.0. Cells were then collected, washed and resuspended in YP medium for 3 hr followed by treatment with different concentrations of glucose for 0.5 hr. For 1NM-PP1 (MCE, HY-13804) treatment, cells were grown in 2% YPD until OD600 of 0.7–1.0. Cells were then treated with 25 μM 1NM-PP1 for 0.5 hr. For FBP and pyruvate treatment, cells were pre-treated with Zymolase (Mpbio, 08320921) to increase the permeability. In brief, cells were grown in YPD medium until OD600 of 0.7–1.0, centrifuged and resuspended in 1 ml SB buffer (100 mM Sorbitol, 20 mM Tris pH 7.4). 10 μl Zymolase was then added and incubated at 30 °C for 15 min. The spheroplasts were washed and cultured in YPD medium containing different concentrations of FBP and pyruvate for 3 hr.
(§2) Cells were grown in 5 ml YPD or selective medium until OD600 of 0.7–1.0. Cells were harvested and lysed in alkaline lysis buffer (2 M NaOH, 8% 2-mercaptoethanol). After centrifugation, the protein pellet was resuspended in 150 μl 2×SDS-sample buffer. Protein samples were separated by 8–15% SDS-PAGE and transferred to PVDF membrane. The blots were probed with primary antibodies followed by incubation with horseradish peroxidase-labelled IgG secondary antibodies. The protein bands were visualized using the ECL Chemiluminescence Detection Kit (Bio-Rad, 170–5061) and quantified with Image J software (v.1.8.0).

[2] = test system: Jhd2; test: In vitro demethylase assay, Jhd2 purified from cells grown in increasing glucose; assay type: biochemical, budding yeast (Saccharomyces cerevisiae); conditions: Jhd2 from cells grown in 0.05%, 0.5%
Description: We also purified unphosphorylated Jhd2 from tpk2Δ mutant (Jhd2 tpk2Δ) and performed in vitro demethylase assay. […] We also treated WT Jhd2 with λ phosphatase to remove its phosphorylation and then used this dephosphorylated Jhd2 for in vitro demethylase assay. […] Furthermore, we purified Jhd2 from cells grown in increasing glucose concentrations (0.05%, 0.5%, 2%) and performed in vitro demethylase assay.
The reaction was quenched by adding 2×SDS-PAGE loading buffer and incubated at 95 °C for 10 min. Samples were spotted to PVDF membrane followed by dot blots with indicated antibodies.

[3] = test system: H2Bub; test: Western blot of H2B monoubiquitination (H2Bub) after glucose; assay type: cell-based, budding yeast (Saccharomyces cerevisiae); conditions: for H2Bub/H2B: 0.5 hr
Description: as §1, §2
Supplementary Fi g . […] WT (a) and H2B-F LA G cel ls (b) wer e grown in YPD medium until OD600 of 0.7.
Cells were th en tr eat ed with YP medium supplement ed with differen t concentrations of glucos e for 0.5 hr. C ells were h ar vested an d the ex tract ed histones w er e anal yz ed by Western blots with indicat ed ant ibodies. To d et ect H2B monoubiquitination, H2B-F LAG strain w as used and d et ect ed with anti -F LAG ant ibody. Th e upper bands ar e monoubiquitinat ed H2B-F LAG. c E ff e c t of gl ucose on histone modifications in WT and ubp8∆ ubp10∆ mutant. WT and ubp8∆ ubp10∆ mut ant w er e gro wn in YPD medium unti l OD600 of 0.7. Cells wer e th en treated with YP medium supplem ent ed with di fferent con cen tr ations of gl u cos e fo r 0.5 hr. d Gluco se has no effect on the activit y of C O M PA S S . Spp1-TA P cells wer e grown in YPD medium until OD600 of 1.5. Cells were h arv est ed and then treat ed with YP + 0.05% glucos e and YP + 4% gl u cos e for 0.5 hr. Spp1-cont aining COMPASS (Spp1-CBP ) was then p urifi ed by tand em affinit y puri fi cati on ( TA P ) . Th e in vitro hi stone meth yltransferase assa y was p er form ed wit h purifi ed C O M PA S S and in vitro assembl ed nucl eosom es. e E ff e c t of the m TO R pathwa y on H3K4 meth ylation. […]
For Supplem ent ar y Fi g. 1b, e-g, i-k, d at a r ep res ent means ± SEM; n=3 i ndependent ex perim ents. For Supplem entar y Fi g. 1c, d ata represent means ± SEM; n=4 independent ex periments. Tw o -sided t-tests were used for statistical analysis.

[4] = test system: H3K79me3; test: ChIP-qPCR of H3K79me3/H3 (rebuttal); assay type: cell-based, budding yeast (Saccharomyces cerevisiae); conditions: 0.05% versus 2% glucose

OC[C@H]1OC(O)[C@H](O)[C@@H](O)[C@@H]1O (stereo partly shown) [glucose]
H3K4me3 level [1]: induced H3K4me3 in a dose-dependent manner | phosphorylation level and demethylase activity of Jhd2 purified from cells in 2% glucose versus 0.05% glucose [2]: higher phosphorylation level but lower demethylase activity | H2Bub/H2B ([3]; 0.5% glucose, relative to 0.05% glucose = 1, replicate 1): 1.541 | H2Bub/H2B ([3]; 0.5% glucose, relative to 0.05% glucose = 1, replicate 2): 1.389 | H2Bub/H2B ([3]; 0.5% glucose, relative to 0.05% glucose = 1, replicate 3): 1.9778 | H2Bub/H2B ([3]; 1% glucose, relative to 0.05% glucose = 1, replicate 1): 1.812 | H2Bub/H2B ([3]; 1% glucose, relative to 0.05% glucose = 1, replicate 2): 3.264 | H2Bub/H2B ([3]; 1% glucose, relative to 0.05% glucose = 1, replicate 3): 4.024 | H2Bub/H2B ([3]; 2% glucose, relative to 0.05% glucose = 1, replicate 1): 2.484 | H2Bub/H2B ([3]; 2% glucose, relative to 0.05% glucose = 1, replicate 2): 4.332 | H2Bub/H2B ([3]; 2% glucose, relative to 0.05% glucose = 1, replicate 3): 3.575 | H2Bub/H2B ([3]; 4% glucose, relative to 0.05% glucose = 1, replicate 1): 3.885 | H2Bub/H2B ([3]; 4% glucose, relative to 0.05% glucose = 1, replicate 2): 5.306 | H2Bub/H2B ([3]; 4% glucose, relative to 0.05% glucose = 1, replicate 3): 5.56 | H2Bub level ([3]; H2B-FLAG cells, glucose 0.5 hr, Western blot): induced H2Bub | H3K79me3 occupancy at PAU8, DRS2 and ATG5 [4]: glucose significantly increased H3K79me3 at H2Bub-dependent genes (PAU8, DRS2)
